For data set [1], the target named is hP2X2/3 (heterodimeric receptors formed by human purinergic P2X receptors subtype 2 and subtype 3) (Homo sapiens (Human), UniProt P56373+Q9UBL9). As to the kind of experiment: FLIPR calcium assay, hP2X2/3 expressed in HEK293 cells (P2X2/3 receptor selectivity). The note with it: for pIC50: HEK293 cells expressing hP2X2/3, agonist BZ-ATP 5 μM, unit inferred. Format: cell-based.

The target in data set [2] is hP2X3 (human purinergic P2X receptor subtype 3) (Homo sapiens (Human), UniProt P56373). As to the kind of experiment: FLIPR calcium assay, hP2X3 expressed in HEK293 cells. The class given is cell-based. To be noted: read-out: P2X3 IC50.
Chain of hP2X3 (human purinergic P2X receptor subtype 3) (P56373 whole entry): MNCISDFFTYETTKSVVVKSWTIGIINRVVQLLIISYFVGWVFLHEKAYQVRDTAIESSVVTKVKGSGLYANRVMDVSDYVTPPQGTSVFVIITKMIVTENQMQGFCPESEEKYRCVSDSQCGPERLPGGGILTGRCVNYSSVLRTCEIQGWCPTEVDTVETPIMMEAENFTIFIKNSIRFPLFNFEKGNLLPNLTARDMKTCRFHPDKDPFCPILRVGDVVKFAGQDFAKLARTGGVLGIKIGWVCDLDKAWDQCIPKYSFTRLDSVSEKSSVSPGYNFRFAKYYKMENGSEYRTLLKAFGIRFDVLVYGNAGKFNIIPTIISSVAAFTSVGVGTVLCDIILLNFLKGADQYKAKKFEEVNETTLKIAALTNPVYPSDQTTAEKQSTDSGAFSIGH
Data set [3] can be described thus: In vitro cytotoxicity assay, CCK-8 method. Format: cell-based. To be noted: human, HepG2 cells. The protocol: In vitro cytotoxicity assay for the compounds disclosed herein was performed in HepG2 cells using the CCK-8 method. HepG2 cells (Beina Bio) in the logarithmic growth phase were collected, the concentration of cell suspension was adjusted, and then the cells were plated on a 96-well cell culture plate at 50,000 cells/well. The cells were then incubated overnight in a cell incubator of 5% […] at 37° C., and after 80-90% cell confluence was achieved, test compounds or vehicle (DMSO) at various concentration gradients were added after medium change. The plate was incubated in a cell incubator of 5% […] at 37° C. for 48 h. After the treatment, the medium in the plate was discarded. The plate was washed twice with PBS, added with CCK-8 working solution (Beyotime) at 100 μL per well, and then incubated at 37° C. for 1.5 h away from light. Absorbance at OD450nm was measured for each well on a microplate reader, and CC50 value of each compound was analyzed and calculated.

The nature of data set [4]: In vitro metabolic stability, human liver microsome. To be noted: liver microsomes, 1 mg/mL liver microsome protein, 37° C., NA = essentially not metabolized, read-out: T1/2 in human liver microsome. Format: in vitro ADME. As for the experimental part:
The in vitro metabolic stability of the compounds disclosed herein was determined through incubation of liver microsomes of various species. […] At each time point, 100 μL of the reaction mixture was added into a centrifuge tube containing 400 μL of internal standard working solution (containing a 200 ng/mL solution of dexamethasone, diclofenac, tolbutamide and labetalol in acetonitrile) precooled at 0° C. so as to terminate the reaction, and the mixture was then centrifuged at 10,000 g for 10 min at 4° C. The supernatant was collected for LC-MS assay so as to obtain the values of in vitro metabolic half-life of the test compounds in liver microsomes of various species.

pIC50: −log10 of the molar value.

The values below come from patent publication US20240034729A9, “HETEROCYCLIC COMPOUND, INTERMEDIATE, PREPARATION METHOD THEREFOR AND APPLICATION THEREOF” (WUHAN LL SCIENCE AND TECHNOLOGY DEVELOPMENT CO., LTD., priority 2018, published 2024).

Chain of hP2X2/3 (heterodimeric receptors formed by human purinergic P2X receptors subtype 2 and subtype 3) (P56373 whole entry): as above
Chain of hP2X2/3 (heterodimeric receptors formed by human purinergic P2X receptors subtype 2 and subtype 3) (Q9UBL9 whole entry): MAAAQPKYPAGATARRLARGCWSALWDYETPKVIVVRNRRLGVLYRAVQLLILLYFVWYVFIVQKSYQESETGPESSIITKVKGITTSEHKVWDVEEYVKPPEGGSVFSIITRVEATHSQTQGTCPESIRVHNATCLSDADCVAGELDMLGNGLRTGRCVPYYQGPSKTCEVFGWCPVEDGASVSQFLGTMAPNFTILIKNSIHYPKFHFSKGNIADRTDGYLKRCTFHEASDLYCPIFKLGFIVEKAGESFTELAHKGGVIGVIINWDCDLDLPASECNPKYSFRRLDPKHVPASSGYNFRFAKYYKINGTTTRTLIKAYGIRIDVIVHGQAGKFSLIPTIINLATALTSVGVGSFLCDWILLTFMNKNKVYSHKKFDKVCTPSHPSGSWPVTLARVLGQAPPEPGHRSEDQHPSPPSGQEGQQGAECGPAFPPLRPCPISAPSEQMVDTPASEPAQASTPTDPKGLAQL

Take `CNC(=O)c1cc(F)c(-c2oc3cc(C)cnc3c2C[C@H]2CN(C(=O)OC)CCO2)c(F)c1` [Compound 54, methyl (S)-2-((2-(2,6-difluoro-4-(methylcarbamoyl)phenyl)-6-methylfurano[3,2-b]pyridin-3-yl)methyl)morpholine-4-carboxylate]: in data set [1], the Folds of selectivity result is “A (key: A: folds of selectivity >1000; B: 200< folds of selectivity ≤1000; C: folds of selectivity ≤200)” and the pIC50 is less than 4.22. Besides, the pIC50 in data set [2] is greater than 8.00.

On to `COC(=O)N1CCO[C@@H](Cc2c(-c3c(F)cc(-n4cnnn4)cc3F)nc3cc(C)ccn23)C1` [Compound 58], for which, in data set [1], the Folds of selectivity result is given as “A (key: A: folds of selectivity >1000; B: 200< folds of selectivity ≤1000; C: folds of selectivity ≤200)” and the negative-log IC50 (pIC50) is less than 4.22.

Consider `COC(=O)N1CCO[C@@H](Cc2c(-c3c(F)cc(NC(=O)CC4(C(=O)O)CC4)cc3F)nc3cc(C)ccn23)C1` [Compound 61, (S)-1-(2-((3,5-difluoro-4-(3-((4-(carbomethoxy<methoxycarbonyl>)morpholin-2-yl)methyl)-7-methylimidazo [1,2-a]pyridin-2-yl)phenyl)amino)-2-carbonylethyl)cyclopropanecarboxylic acid], for which, in data set [1], the Folds of selectivity result is reported as “A (key: A: folds of selectivity >1000; B: 200< folds of selectivity ≤1000; C: folds of selectivity ≤200)” and the negative logarithm of the IC50 (pIC50) was less than 4.22. Also, the negative-log IC50 (pIC50) in data set [2] was greater than 8.00.

As to `COC(=O)N1CCO[C@@H](Cc2c(-c3c(F)cc(-c4ccc(C#N)[nH]4)cc3F)nc3cc(C)ccn23)C1` [Compound 138, methyl (S)-2-((2-(2,6-difluoro-4-(5-cyano-1H-pyrrol-2-yl)phenyl)-7-methylimidazo[1,2-a]pyridin-3-yl)methyl)morpholine-4-carboxylate], in data set [1], the Folds of selectivity entry is given as “A (key: A: folds of selectivity >1000; B: 200< folds of selectivity ≤1000; C: folds of selectivity ≤200)” and the pIC50 is less than 4.22. The negative logarithm of the IC50 (pIC50) in data set [2] was greater than 8.00.

With `COC(=O)N1CCO[C@@H](Cc2c(-c3c(F)cc(NC(C)=O)cc3F)nc3cc(C(F)F)ccn23)C1` [Compound 151], in data set [1], the Folds of selectivity result is recorded as “A (key: A: folds of selectivity >1000; B: 200< folds of selectivity ≤1000; C: folds of selectivity ≤200)”. Besides, the values for the pIC50 in data set [1] and in data set [2] were less than 4.22 and greater than 8.00, respectively.

As for `CCC(=O)N1CCO[C@@H](Cc2c(-c3c(F)cc(NC(C)=O)cc3F)nc3cc(CF)ccn23)C1` [Compound 155], in data set [2], the pIC50 was greater than 8.00.

Consider `CCC(=O)N1CCO[C@@H](Cc2c(-c3c(F)cc(NC(C)=O)cc3F)nc3cc(C)ccn23)C1` [Compound 156], for which the negative logarithm of the IC50 (pIC50) in data set [2] was greater than 8.00.

Take `CCC(=O)N1CCO[C@@H](Cc2c(-c3c(F)cc(NC(C)=O)cc3F)nc3cc(C(F)F)ccn23)C1` [Compound 157]: the negative logarithm of the IC50 (pIC50) in data set [2] is greater than 8.00.

As for `CC(=O)N1CCO[C@@H](Cc2c(-c3c(F)cc(-n4ccnc4)cc3F)nc3cc(Cl)ccn23)C1` [Compound 158, (S)-1-(2-((7-chloro-2-(2,6-difluoro-4-(1H-imidazol-1-yl)phenyl)imidazo[1,2-a]pyridin-3-yl)methyl)morpholino)ethan-1-one], in data set [1], the Folds of selectivity result was “A (key: A: folds of selectivity >1000; B: 200< folds of selectivity ≤1000; C: folds of selectivity ≤200)”. Besides, the negative logarithm of the IC50 (pIC50) in data set [1] was less than 4.22; in data set [2] it was greater than 8.00. The compound also registered a cytotoxic concentration (CC50) at 48 h in data set [3] greater than 100000 nM.

With `CC(=O)N1CCO[C@@H](Cc2c(-c3c(F)cc(-c4ncco4)cc3F)nc3cc(Cl)ccn23)C1` [Compound 159, (S)-1-(2-((7-chloro-2-(2,6-difluoro-4-(oxazol-2-yl)phenyl)imidazo[1,2-a]pyridin-3-yl)methyl)morpholino)ethan-1-one], the CC50 at 48 h in data set [3] is greater than 100000 nM.

For `CC(=O)N1CCO[C@@H](Cc2c(-c3c(F)cc(-n4cccn4)cc3F)nc3cc(Cl)ccn23)C1` [Compound 160, (S)-1-(2-((7-chloro-2-(2,6-difluoro-4-(1H-pyrazol-1-yl)phenyl)imidazo[1,2-a]pyridin-3-yl)methyl)morpholino)ethan-1-one], in data set [3], the CC50 at 48 h was greater than 100000 nM.

`CC(=O)N1CCO[C@@H](Cc2c(-c3c(F)cc(-c4ncco4)cc3F)nc3cc(C)ccn23)C1` [Compound 163, (S)-1-(2-((2-(2,6-difluoro-4-(oxazol-2-yl)phenyl)-7-methylimidazo[1,2-a]pyridin-3-yl)methyl)morpholino)ethan-1-one]: the CC50 at 48 h in data set [3] was greater than 100000 nM.

Turning to `CC(=O)N1CCO[C@@H](Cc2c(-c3c(F)cc(-c4nnc[nH]4)cc3F)nc3cc(Cl)ccn23)C1` [Compound 166], in data set [1], the Folds of selectivity entry is on record as “A (key: A: folds of selectivity >1000; B: 200< folds of selectivity ≤1000; C: folds of selectivity ≤200)” and the pIC50 is less than 4.22. Moreover, in data set [2], the pIC50 is greater than 8.00. This compound also came in with a CC50 at 48 h in data set [3] greater than 100000 nM.

In the case of `CC(=O)Nc1cc(F)c(-c2nc3cc(C)ccn3c2C[C@H]2CN(C(C)=O)CCO2)c(F)c1` [Compound 167, (S)—N-(4-(3-((4-acetylmorpholin-2-yl)methyl)-7-methylimidazo[1,2-a]pyridin-2-yl)-3,5-difluorophenyl)acetamide], in data set [3], the CC50 at 48 h is greater than 100000 nM.

Regarding `COC(=O)N1CCO[C@@H](Cc2c(-c3c(F)cc(NC(=O)CC(C)C(N)=O)cc3F)nc3cc(C)ccn23)C1` (some centres unmarked) [Compound 170], in data set [2], the pIC50 was 6.70 to 7.30.

As for `COC(=O)N1CCO[C@@H](Cc2c(-c3c(F)cc(S(N)(=O)=O)cc3Cl)nc3cc(C)ccn23)C1` [Compound 177, methyl (S)-2-((2-(2-chloro-6-fluoro-4-sulfamoylphenyl)-7-methylimidazo[1,2-a]pyridin-3-yl)methyl)morpholine-4-carboxylate], the pIC50 in data set [2] was 8.96. Further, the half-life in data set [4] stood at 5.41 h.

As to `COC(=O)N1CCO[C@@H](Cc2c(-c3ccc(S(N)(=O)=O)cc3Cl)nc3cc(Cl)ccn23)C1` [Compound 178, methyl (S)-2-((7-chloro-2-(2-chloro-4-sulfamoylphenyl)imidazo[1,2-a]pyridin-3-yl)methyl)morpholine-4-carboxylate], the pIC50 in data set [2] is 10.00. Moreover, the half-life in data set [4] amounted to 20.6 h.

As to `COC(=O)N1CCO[C@@H](Cc2c(-c3c(F)cc(S(N)(=O)=O)cc3Cl)nc3cc(Cl)ccn23)C1` [Compound 179, methyl (S)-2-((7-chloro-2-(2-chloro-6-fluoro-4-sulfamoylphenyl)imidazo[1,2-a]pyridin-3-yl)methyl)morpholine-4-carboxylate], the pIC50 in data set [2] was 9.40.

With `COC(=O)N1CCO[C@@H](Cc2c(-c3cc(F)c(S(N)(=O)=O)cc3Cl)nc3cc(C)ccn23)C1` [Compound 180, methyl (S)-2-((2-(2-chloro-5-fluoro-4-sulfamoylphenyl)-7-methylimidazo[1,2-a]pyridin-3-yl)methyl)morpholine-4-carboxylate], the pIC50 in data set [2] is 9.70.

As to `COC(=O)N1CCO[C@@H](Cc2c(-c3c(F)cc(S(N)(=O)=O)cc3F)nc3cc(Cl)c(F)cn23)C1` [Compound 183, methyl (S)-2-((7-chloro-2-(2,6-difluoro-4-sulfamoylphenyl)-6-fluoroimidazo[1,2-a]pyridin-3-yl)methyl)morpholine-4-carboxylate], the negative-log IC50 (pIC50) in data set [2] is 8.26.

For the compound `CNC(=O)c1ccnc(Cc2c(-c3c(F)cc(S(N)(=O)=O)cc3F)nc3cc(C)ccn23)c1` [Compound 185], in data set [2], the negative-log IC50 (pIC50) is 7.89.

Turning to `Cc1ccn2c(Cc3cc(C#N)ccn3)c(-c3c(F)cc(S(N)(=O)=O)cc3F)nc2c1` [Compound 186], in data set [2], the negative logarithm of the IC50 (pIC50) is 7.19.

For `COC(=O)N1CCC[C@@H](Cc2c(-c3c(F)cc(S(N)(=O)=O)cc3F)nc3cc(C)ccn23)C1` [Compound 187], the pIC50 in data set [2] was 7.30.

Turning to `COC(=O)N1CCC[C@@H](Cc2c(-c3c(F)cc(S(N)(=O)=O)cc3F)nc3cc(Cl)ccn23)C1` [Compound 188], in data set [2], the negative-log IC50 (pIC50) was 8.05.

Turning to `COC(=O)N1CCO[C@@H](Cc2c(-c3ccc(S(N)(=O)=O)nc3Cl)nc3cc(C)ccn23)C1` [Compound 190], the pIC50 in data set [2] is greater than 8.00.

For `COC(=O)N1CCO[C@@H](Cc2c(-c3ncc(S(N)(=O)=O)nc3Cl)nc3cc(C)ccn23)C1` [Compound 191], in data set [1], the Folds of selectivity entry is recorded as “A (key: A: folds of selectivity >1000; B: 200< folds of selectivity ≤1000; C: folds of selectivity ≤200)”. The pIC50 in data set [1] was less than 4.22; in data set [2], greater than 8.00.

In the case of `COC(=O)N1CCO[C@@H](Cc2c(-c3c(F)cc(-n4cnc(C#N)c4)cc3F)nc3cc(C)ccn23)C1` [Compound 192, methyl (S)-2-((2-(4-(4-cyano-1H-imidazol-1-yl)-2,6-difluorophenyl)-7-methylimidazo[1,2-a]pyridin-3-yl)methyl)morpholine-4-carboxylate], the pIC50 in data set [2] is 7.30 to 8.00.

In the case of “(S,E)-4-((3,5-difluoro-4-(3-((4-(methoxycarbonyl)-morpholin-2-yl)-methyl)-7-methylimidazo[1,2-a]pyri din-2-yl)-phenyl)-amino)-4-oxobutyl-2-enoic acid [Compound 27]”, the pIC50 in data set [2] was greater than 8.00.

One may read the pIC50 as the IC50 on a negative log10 scale, so that one unit is a factor of ten. One may read the CC50 as the concentration at which the toxic effect on the cells reaches its halfway point.
